From ChEMBL document CHEMBL1135344, “Synthesis and antiviral/antiproliferative activity of some N-sulphonylbenzimidazoles” (Bioorg Med Chem Lett, 2002)
≈ marks a conversion by molar mass, not a printed value.

Columns and labels:
Human alphaherpesvirus 3 [1] = assay: Antiviral activity was tested against TK+ Varicella-Zoster virus YS which reduces virus plaque formation by 50%; assay type: functional, organism-based
Human alphaherpesvirus 3 [2] = assay: Antiviral activity was tested against TK- Varicella-Zoster virus 07/1 which reduces virus plaque formation by 50%; assay type: functional, organism-based
Human alphaherpesvirus 3 [3] = assay: Antiviral activity was tested against TK- Varicella-Zoster virus YS/R which reduces virus plaque formation by 50%; assay type: functional, organism-based
HEL [4] = assay: Cytotoxic concentration reducing HEL cell growth by 50%.; assay type: functional; settings: Homo sapiens
HEL [5] = assay: Minimum cytotoxic concentration against HEL cell morphology.; assay type: functional; settings: Homo sapiens
Human alphaherpesvirus 3 [6] = assay: Antiviral activity was tested against TK+ Varicella-Zoster virus OKA which reduces virus plaque formation by 50%; assay type: functional, organism-based
Human betaherpesvirus 5 [7] = assay: Antiviral activity was tested against human cytomegalovirus Davis which reduces virus plaque formation by 50%; assay type: functional, organism-based
Human betaherpesvirus 5 [8] = assay: Antiviral activity was tested against human cytomegalovirus AD-169 which reduces virus plaque formation by 50%; assay type: functional, organism-based

With `Nc1nc2c(ncn2COCCO)c(=O)[nH]1` [ACYCLOVIR] as the molecule, how does the IC50 (Human alphaherpesvirus 3 [1]) read?
Its IC50 is 0.38 µg/mL (≈ 1.69 µM).

What about the IC50 (Human alphaherpesvirus 3 [2]) of the same molecule?
Its IC50 is 6.5 µg/mL (≈ 28.9 µM).

What about the IC50 (Human alphaherpesvirus 3 [3]) of the same molecule?
Its IC50 is 3.1 µg/mL (≈ 13.8 µM).

What about the CC50 (HEL [4]) of the same molecule?
The CC50 was > 200 µg/mL.

And the MCC (HEL [5])?
The MCC was > 50 µg/mL.

What about the IC50 (Human alphaherpesvirus 3 [6]) of the same molecule?
The IC50 was 0.35 µg/mL (≈ 1.55 µM).

Which IC50 (Human alphaherpesvirus 3 [1]) does the source give for `O=c1[nH]c(=O)n([C@H]2C[C@H](O)[C@@H](CO)O2)cc1/C=C/Br` [BRIVUDINE] here?
Its IC50 is 0.003 µg/mL (≈ 0.00901 µM).

And the IC50 (Human alphaherpesvirus 3 [2])?
The IC50 was 6.8 µg/mL (≈ 20.4 µM).

And the IC50 (Human alphaherpesvirus 3 [3])?
The IC50 was 6.4 µg/mL (≈ 19.2 µM).

And the CC50 (HEL [4])?
Its CC50 is > 200 µg/mL.

And the MCC (HEL [5])?
The MCC was > 50 µg/mL.

What about the IC50 (Human alphaherpesvirus 3 [6]) of the same molecule?
Its IC50 is 0.002 µg/mL (≈ 0.006 µM).

What does the source list for `Nc1ccn(C[C@@H](CO)OCP(=O)(O)O)c(=O)n1.O.O` [CIDOFOVIR]?
IC50 (Human betaherpesvirus 5 [7]): 0.3 µg/mL; IC50 (Human betaherpesvirus 5 [8]): 0.1 µg/mL; CC50 (HEL [4]): > 50 µg/mL; MCC (HEL [5]): > 50 µg/mL

For `Nc1nc2c(ncn2COC(CO)CO)c(=O)[nH]1` [GANCICLOVIR], which IC50 (Human betaherpesvirus 5 [7]) is on record?
The IC50 was 0.4 µg/mL (≈ 1.57 µM).

What about the IC50 (Human betaherpesvirus 5 [8]) of the same molecule?
Its IC50 is 0.3 µg/mL (≈ 1.18 µM).

What about the CC50 (HEL [4]) of the same molecule?
The CC50 was > 50 µg/mL.

What about the MCC (HEL [5]) of the same molecule?
Its MCC is > 50 µg/mL.
